According to PubChem BioAssay (NCI):
Values joined by “and” are separate entries in the source; they are usually repeats but may differ in a detail not shown here. Equal values may be shown once.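 These data come from cells grown in 96-well plates and exposed to compound for 48 hours at five concentrations. GI50 marks 50% less growth. At the TGI there is no net growth.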

Key:
Test in all cases: NCI tumour cell line growth inhibition, 48 h
SNB-75 CNS = test system: SNB-75 CNS
LOX IMVI melanoma = test system: LOX IMVI melanoma
UACC-62 melanoma = test system: UACC-62 melanoma
DMS 114 small cell lung = test system: DMS 114 small cell lung
SR leukemia = test system: SR leukemia
PC-3 prostate = test system: PC-3 prostate
CCRF-CEM leukemia = test system: CCRF-CEM leukemia
RPMI-8226 leukemia = test system: RPMI-8226 leukemia
OVCAR-4 ovarian = test system: OVCAR-4 ovarian
SK-MEL-28 melanoma = test system: SK-MEL-28 melanoma
COLO 205 colon = test system: COLO 205 colon
P388/ADR leukemia = test system: P388/ADR leukemia
SK-MEL-5 melanoma = test system: SK-MEL-5 melanoma
NCI-H23 lung = test system: NCI-H23 lung
TK-10 renal = test system: TK-10 renal
KM12 colon = test system: KM12 colon
BT-549 breast = test system: BT-549 breast
HL-60(TB) leukemia = test system: HL-60(TB) leukemia
M14 melanoma = test system: M14 melanoma
OVCAR-5 ovarian = test system: OVCAR-5 ovarian
SK-OV-3 ovarian = test system: SK-OV-3 ovarian
SNB-19 CNS = test system: SNB-19 CNS
HT29 colon = test system: HT29 colon
A549 NSCLC = test system: A549 NSCLC
MOLT-4 leukemia = test system: MOLT-4 leukemia
HS 578T breast = test system: HS 578T breast
MDA-MB-231 breast = test system: MDA-MB-231 breast
SN12C renal = test system: SN12C renal
SF-539 CNS = test system: SF-539 CNS
HCC-2998 colon = test system: HCC-2998 colon
DLD-1 colon = test system: DLD-1 colon
UACC-257 melanoma = test system: UACC-257 melanoma
SF-268 CNS = test system: SF-268 CNS
K-562 leukemia = test system: K-562 leukemia
HCT-116 colon = test system: HCT-116 colon
DMS 273 small cell lung = test system: DMS 273 small cell lung
SW-620 colon = test system: SW-620 colon
A498 renal = test system: A498 renal
MDA-N = test system: MDA-N
NCI-H522 lung = test system: NCI-H522 lung
SK-MEL-2 melanoma = test system: SK-MEL-2 melanoma
M19-MEL melanoma = test system: M19-MEL melanoma
OVCAR-3 ovarian = test system: OVCAR-3 ovarian
EKVX NSCLC = test system: EKVX NSCLC
NCI-H226 lung = test system: NCI-H226 lung
XF 498 CNS = test system: XF 498 CNS
IGROV1 ovarian = test system: IGROV1 ovarian
KM20L2 colon = test system: KM20L2 colon
NCI/ADR-RES ovarian = test system: NCI/ADR-RES ovarian
MALME-3M melanoma = test system: MALME-3M melanoma
SF-295 CNS = test system: SF-295 CNS
P388 leukemia = test system: P388 leukemia
NCI-H460 lung = test system: NCI-H460 lung
MDA-MB-435 = test system: MDA-MB-435
HCT-15 colon = test system: HCT-15 colon
T-47D breast = test system: T-47D breast
SNB-78 CNS = test system: SNB-78 CNS
ACHN renal = test system: ACHN renal
RXF 393 renal = test system: RXF 393 renal
UO-31 renal = test system: UO-31 renal
MCF7 breast = test system: MCF7 breast
HOP-62 NSCLC = test system: HOP-62 NSCLC
DU-145 prostate = test system: DU-145 prostate
SN12K1 renal = test system: SN12K1 renal
U251 CNS = test system: U251 CNS
786-0 renal = test system: 786-0 renal
HOP-92 NSCLC = test system: HOP-92 NSCLC

C[C@]12CC[C@H](OC3OC(CO)C(O)C(O)C3O)C[C@H]1CC[C@@H]1[C@@H]2CC[C@]2(C)[C@@H](C3=CCOC3=O)CC[C@]12O (stereo partly drawn)
TGI (SNB-75 CNS): 31.6 µM and > 100 µM
GI50 (LOX IMVI melanoma): > 100 µM
TGI (LOX IMVI melanoma): 25.3 µM and > 100 µM
TGI (UACC-62 melanoma): 30.8 µM and > 100 µM
TGI (DMS 114 small cell lung): 50 µM
TGI (SR leukemia): > 100 µM
TGI (PC-3 prostate): > 100 µM
GI50 (CCRF-CEM leukemia): 23.4 µM and > 100 µM
TGI (CCRF-CEM leukemia): 50 µM and > 100 µM
TGI (RPMI-8226 leukemia): 19.5 µM and > 100 µM
GI50 (OVCAR-4 ovarian): > 100 µM and 20.7 µM
TGI (OVCAR-4 ovarian): 50 µM and > 100 µM
GI50 (SK-MEL-28 melanoma): > 100 µM
TGI (SK-MEL-28 melanoma): 50 µM and > 100 µM
GI50 (COLO 205 colon): > 100 µM
TGI (COLO 205 colon): 50 µM and > 100 µM
TGI (P388/ADR leukemia): 50 µM
GI50 (SK-MEL-5 melanoma): > 100 µM
TGI (SK-MEL-5 melanoma): 45.7 µM and > 100 µM
GI50 (NCI-H23 lung): > 100 µM
TGI (NCI-H23 lung): 50 µM and > 100 µM
TGI (TK-10 renal): > 100 µM
GI50 (KM12 colon): > 100 µM
TGI (KM12 colon): 50 µM and > 100 µM
TGI (BT-549 breast): > 100 µM
GI50 (HL-60(TB) leukemia): > 100 µM
TGI (HL-60(TB) leukemia): 28 µM and > 100 µM
TGI (M14 melanoma): > 100 µM
GI50 (OVCAR-5 ovarian): > 100 µM
TGI (OVCAR-5 ovarian): > 100 µM
GI50 (SK-OV-3 ovarian): > 100 µM
TGI (SK-OV-3 ovarian): > 100 µM
GI50 (SNB-19 CNS): 23.4 µM and > 100 µM
TGI (SNB-19 CNS): 50 µM and > 100 µM
GI50 (HT29 colon): > 100 µM
TGI (HT29 colon): 50 µM and > 100 µM
GI50 (A549 NSCLC): > 100 µM and 84.5 µM
TGI (A549 NSCLC): 50 µM and > 100 µM
GI50 (MOLT-4 leukemia): 22.5 µM and > 100 µM
TGI (MOLT-4 leukemia): 50 µM and > 100 µM
TGI (HS 578T breast): > 100 µM
TGI (MDA-MB-231 breast): > 100 µM
GI50 (SN12C renal): > 100 µM
TGI (SN12C renal): 50 µM and > 100 µM
GI50 (SF-539 CNS): 198 nM
TGI (SF-539 CNS): 7.96 µM and 1.6 µM
GI50 (HCC-2998 colon): > 100 µM
TGI (HCC-2998 colon): 50 µM and > 100 µM
TGI (DLD-1 colon): > 50 µM
GI50 (UACC-257 melanoma): 21.9 µM and > 100 µM
TGI (UACC-257 melanoma): 50 µM and > 100 µM
GI50 (SF-268 CNS): > 100 µM and 27.1 µM
TGI (SF-268 CNS): 50 µM and > 100 µM
GI50 (K-562 leukemia): > 100 µM
TGI (K-562 leukemia): 50 µM and > 100 µM
GI50 (HCT-116 colon): > 100 µM and 51.3 µM
TGI (HCT-116 colon): 50 µM and > 100 µM
TGI (DMS 273 small cell lung): 25.1 µM
GI50 (SW-620 colon): > 100 µM
TGI (SW-620 colon): 50 µM and > 100 µM
GI50 (A498 renal): > 100 µM
TGI (A498 renal): 21.1 µM and > 100 µM
TGI (MDA-N): > 100 µM
GI50 (NCI-H522 lung): 74.9 µM and 10.1 µM
TGI (NCI-H522 lung): 50 µM and > 100 µM
GI50 (SK-MEL-2 melanoma): > 100 µM
TGI (SK-MEL-2 melanoma): 50 µM and > 100 µM
TGI (M19-MEL melanoma): 37.9 µM
GI50 (OVCAR-3 ovarian): 42.1 µM and > 100 µM
TGI (OVCAR-3 ovarian): 50 µM and > 100 µM
GI50 (EKVX NSCLC): > 100 µM
TGI (EKVX NSCLC): 29.3 µM and > 100 µM
TGI (NCI-H226 lung): 26.4 µM and > 100 µM
TGI (XF 498 CNS): 11.2 µM
GI50 (IGROV1 ovarian): > 100 µM
TGI (IGROV1 ovarian): 50 µM and > 100 µM
TGI (KM20L2 colon): 50 µM
GI50 (NCI/ADR-RES ovarian): > 100 µM
TGI (NCI/ADR-RES ovarian): 50 µM and > 100 µM
GI50 (MALME-3M melanoma): 23 µM and 16.2 µM
TGI (MALME-3M melanoma): 20.4 µM and > 100 µM
TGI (SF-295 CNS): 24.6 µM and > 100 µM and 70.7 µM
TGI (P388 leukemia): 20.9 µM
GI50 (NCI-H460 lung): 943 nM and 4260 nM
TGI (NCI-H460 lung): 29.4 µM
TGI (MDA-MB-435): > 100 µM
GI50 (HCT-15 colon): > 100 µM
TGI (HCT-15 colon): 50 µM and > 100 µM
GI50 (T-47D breast): 4.89 µM
TGI (T-47D breast): > 100 µM
TGI (SNB-78 CNS): 50 µM
GI50 (ACHN renal): 183 nM
TGI (ACHN renal): > 100 µM
GI50 (RXF 393 renal): > 100 µM and 89.2 µM
TGI (RXF 393 renal): 37 µM and > 100 µM
GI50 (UO-31 renal): > 100 µM
TGI (UO-31 renal): 50 µM and > 100 µM
GI50 (MCF7 breast): > 100 µM
TGI (MCF7 breast): 47.2 µM and > 100 µM
TGI (HOP-62 NSCLC): 13.8 µM and > 100 µM and 50.3 µM
GI50 (DU-145 prostate): 70.6 µM
TGI (DU-145 prostate): > 100 µM
TGI (SN12K1 renal): 41.5 µM
TGI (U251 CNS): 47.2 µM and > 100 µM
GI50 (786-0 renal): 15.4 µM
TGI (786-0 renal): > 100 µM
GI50 (HOP-92 NSCLC): > 100 µM
TGI (HOP-92 NSCLC): 31.1 µM and > 100 µM
